According to PMC4832243, “Discovery of Potent VEGFR-2 Inhibitors based on Furopyrimidine and Thienopyrimidne Scaffolds as Cancer Targeting Agents” (Scientific Reports, 2016):

Tested on: CD31 and CD34 (% MVD)
Experiment: Immunohistochemistry of EAC solid tumor sections, microvessel density (CD31, CD34)
Details: oral treatment of EAC-bearing mice

SMILES: Cc1cccc(NC(=O)Nc2ccc(Oc3ncnc4sc5c(c34)CCCC5)cc2)c1 [Compound 21b]
- %MVD in EAC solid tumor: reduction of %MVD
